Experimental data reported in patent US6861426B2, “Crystal forms of lamotrigine and processes for their preparations” (Teva Pharmaceutical Industries Ltd., priority 2001, dated 2005).

Assay: Heating of Lamotrigine Solvates/Hydrates (annealing; crystal form afterwards)
Format: physicochemical
Conditions: resulting crystal form
Protocol: All X-ray powder diffraction patterns were obtained by methods known in the art. One method employs the use of a Philips X-Ray powder diffractometer, Goniometer model 1050/70 at a scanning speed of 20 per minute. Another method employs the use of a Scintag X'TRA X-ray powder diffractometer, equipped with a solid state Si(Li) detector thermoelectrically cooled, at a scanning speed of 30 min.^−1 Scanning range […] two-theta. Copper radiation of 1.5418 Å was used. According to one embodiment, the present invention provides a process for preparing lamotrigine form A including heating lamotrigine solvates at temperatures elevated enough to remove all the solvent from the crystal, usually above 100° C. for a period of about 2 hours, preferably above 110° C. for a period of about 1 hour, more preferably at about 150° C. for a period of about ½ hour. [table]

Nc1nnc(-c2cccc(Cl)c2Cl)c(N)n1 [C DMF monosolvate, 6-(2,3-Dichlorophenyl)-1,2,4-triazine-3,5-diamine]
Crystal form after annealing at 110° C. 45 min (solid heated at 110° C. for 45 min): A + P

Nc1nnc(-c2cccc(Cl)c2Cl)c(N)n1 [J ispropanolate, 6-(2,3-Dichlorophenyl)-1,2,4-triazine-3,5-diamine]
Crystal form after annealing at 80° C. 60 min (solid heated at 80° C. for 60 min): Amorphous
